{"source": "paper PMC12396409", "about": "“Screening and hit evaluation of a microbial metabolite library against the pathogenic Plasmodium falciparum and Toxoplasma gondii parasites” (International Journal for Parasitology: Drugs and Drug …, 2025)", "key": {"[1]": {"tested_on": "P. falciparum 3D7 parasites", "test": "P. falciparum growth inhibition assay, 2-cycle (120 h treatment), delayed-death screen and dose-response", "assay_type": "cell-based, Plasmodium falciparum", "details": "for activity at 2 µg/mL: Plasmodium falciparum, P. falciparum, screen at 2 μg/mL; for Pf_120h_%Growth_Rep1 / Pf_120h_%Growth_Rep2: % growth"}, "[2]": {"tested_on": "T. gondii RH strain (RH-Tub-eYFP) tachyzoites", "test": "microbe, parasite or virus in culture", "assay_type": "cell-based, Toxoplasma gondii", "details": "72 h, 72 h; for percent parasite growth at 2 µg/mL: Toxoplasma gondii; for Tg_72h_%Growth_Rep1 / Tg_72h_%Growth_Rep2: % growth"}, "[3]": {"tested_on": "P. falciparum 3D7 parasites", "test": "P. falciparum growth inhibition assay, 1-cycle (72 h treatment), SYBR DNA staining (library screen at 2 μg/mL and dose-response)", "assay_type": "cell-based, Plasmodium falciparum", "details": "for activity at 2 µg/mL: Plasmodium falciparum, P. falciparum, screen at 2 μg/mL; for Pf_72h_%Growth_Rep1 / Pf_72h_%Growth_Rep2: % growth"}, "[4]": {"details": "3D7, 120 h, replicate 1, read-out: Pf_120h_%Growth_Rep1"}, "[5]": {"details": "3D7, 120 h, replicate 2, read-out: Pf_120h_%Growth_Rep2"}, "[6]": {"details": "T. gondii, screen at 2 μg/mL, replicate 1, read-out: Tg_72h_%Growth_Rep1"}, "[7]": {"details": "T. gondii, screen at 2 μg/mL, replicate 2, read-out: Tg_72h_%Growth_Rep2"}, "[8]": {"details": "3D7, 72 h, replicate 1, read-out: Pf_72h_%Growth_Rep1"}, "[9]": {"details": "3D7, 72 h, replicate 2, read-out: Pf_72h_%Growth_Rep2"}, "[10]": {"details": "P. falciparum 3D7, 120 h, library screen at 2 μg/mL, replicate 1"}, "[11]": {"details": "P. falciparum 3D7, 120 h, library screen at 2 μg/mL, replicate 2"}, "[12]": {"details": "T. gondii RH, library screen at 2 μg/mL, replicate 1"}, "[13]": {"details": "T. gondii RH, library screen at 2 μg/mL, replicate 2"}, "[14]": {"details": "P. falciparum 3D7, 72 h, library screen at 2 μg/mL, replicate 1"}, "[15]": {"details": "P. falciparum 3D7, 72 h, library screen at 2 μg/mL, replicate 2"}, "[16]": {"details": "3D7, 120 h, 120 h, replicate 1, read-out: Pf_120h_%Growth_Rep1"}, "[17]": {"details": "3D7, 120 h, 120 h, replicate 2, read-out: Pf_120h_%Growth_Rep2"}, "[18]": {"details": "3D7, 72 h, 72 h, replicate 1, read-out: Pf_72h_%Growth_Rep1"}, "[19]": {"details": "3D7, 72 h, 72 h, replicate 2, read-out: Pf_72h_%Growth_Rep2"}}, "note": "Where two headings read alike, the source gives them in different places."}
{"smiles": "COC(=O)C1=C2Nc3ccccc3[C@@]23CCN2C[C@]4(C[C@@H]5C[C@]67CCC[C@H]6CCN6CC[C@@]8(c9cccc(OC)c9N(C4)[C@@]58O)[C@@H]67)[C@@H]4OCC[C@]4(C1)[C@H]23", "note": "[Vobtusine]", "values": [{"measurement": "activity at 2 µg/mL", "setting": "[1]; [4]", "result": 166, "unit": "%"}, {"measurement": "activity at 2 µg/mL", "setting": "[1]; [5]", "result": 96.3, "unit": "%"}, {"measurement": "percent parasite growth at 2 µg/mL", "setting": "[2]; [6]", "result": 86.1, "unit": "%"}, {"measurement": "percent parasite growth at 2 µg/mL", "setting": "[2]; [7]", "result": 105, "unit": "%"}, {"measurement": "activity at 2 µg/mL", "setting": "[3]; [8]", "result": 81.5, "unit": "%"}, {"measurement": "activity at 2 µg/mL", "setting": "[3]; [9]", "result": 87, "unit": "%"}]}
{"smiles": "CC(C=CC1OC(=O)C=CC1C)=CC(C)CC=CC(C)=CC(C)C(=O)C(C)C(O)C(C)CC(C)=CC(=O)O", "note": "(stereo not drawn) [BIA-L1045]", "values": [{"measurement": "Pf_120h_%Growth_Rep1", "setting": "[1]; [10]", "result": 60.90, "unit": "%"}, {"measurement": "Pf_120h_%Growth_Rep2", "setting": "[1]; [11]", "result": 15.41, "unit": "%"}, {"measurement": "Tg_72h_%Growth_Rep1", "setting": "[2]; [12]", "result": -0.52, "unit": "%"}, {"measurement": "Tg_72h_%Growth_Rep2", "setting": "[2]; [13]", "result": -0.11, "unit": "%"}, {"measurement": "Pf_72h_%Growth_Rep1", "setting": "[3]; [14]", "result": 49.36, "unit": "%"}, {"measurement": "Pf_72h_%Growth_Rep2", "setting": "[3]; [15]", "result": 24.76, "unit": "%"}]}
{"smiles": "CC1=C(O)C(=O)[C@@H]2O[C@@H]2C1=O", "note": "[Terreic acid]", "values": [{"measurement": "activity at 2 µg/mL", "setting": "[1]; [16]", "result": 100, "unit": "%"}, {"measurement": "activity at 2 µg/mL", "setting": "[1]; [17]", "result": 98, "unit": "%"}, {"measurement": "percent parasite growth at 2 µg/mL", "setting": "[2]; [6]", "result": 132, "unit": "%"}, {"measurement": "percent parasite growth at 2 µg/mL", "setting": "[2]; [7]", "result": 83, "unit": "%"}, {"measurement": "activity at 2 µg/mL", "setting": "[3]; [18]", "result": 89.2, "unit": "%"}, {"measurement": "activity at 2 µg/mL", "setting": "[3]; [19]", "result": 121, "unit": "%"}]}
{"smiles": "COC1=C(OC)C(=O)[C@@H](C)[C@H](C)C1=O", "note": "[BIA-G1680]", "values": [{"measurement": "Pf_120h_%Growth_Rep1", "setting": "[1]; [10]", "result": 27.26, "unit": "%"}, {"measurement": "Pf_120h_%Growth_Rep2", "setting": "[1]; [11]", "result": 12.29, "unit": "%"}, {"measurement": "Tg_72h_%Growth_Rep1", "setting": "[2]; [12]", "result": 146.51, "unit": "%"}, {"measurement": "Tg_72h_%Growth_Rep2", "setting": "[2]; [13]", "result": 97.35, "unit": "%"}, {"measurement": "Pf_72h_%Growth_Rep1", "setting": "[3]; [14]", "result": 4.48, "unit": "%"}, {"measurement": "Pf_72h_%Growth_Rep2", "setting": "[3]; [15]", "result": 3.13, "unit": "%"}]}
{"smiles": "CCCC[C@H](O)[C@@H]1CC(OC)=CC(=O)O1", "note": "[BIA-P1067]", "values": [{"measurement": "Pf_120h_%Growth_Rep1", "setting": "[1]; P. falciparum 3D7, 120 h, parasite screen at 2 μg/mL, replicate 1", "result": 77.65, "unit": "%"}, {"measurement": "Pf_120h_%Growth_Rep2", "setting": "[1]; P. falciparum 3D7, 120 h, parasite screen at 2 μg/mL, replicate 2", "result": 111.54, "unit": "%"}, {"measurement": "Tg_72h_%Growth_Rep1", "setting": "[2]; T. gondii, parasite screen at 2 μg/mL, replicate 1", "result": 91.14, "unit": "%"}, {"measurement": "Tg_72h_%Growth_Rep2", "setting": "[2]; T. gondii, parasite screen at 2 μg/mL, replicate 2", "result": 92.83, "unit": "%"}, {"measurement": "Pf_72h_%Growth_Rep1", "setting": "[3]; P. falciparum 3D7, 72 h, parasite screen at 2 μg/mL, replicate 1", "result": 81.23, "unit": "%"}, {"measurement": "Pf_72h_%Growth_Rep2", "setting": "[3]; P. falciparum 3D7, 72 h, parasite screen at 2 μg/mL, replicate 2", "result": 52.23, "unit": "%"}]}
{"smiles": "C/C1=C\\[C@@H](C)C/C=C/[C@H]2[C@@H]3O[C@]3(C)[C@@H](C)[C@H]3[C@H](Cc4c[nH]c5ccccc45)NC(=O)[C@]32C(=O)/C=C/C(=O)[C@@H]1O", "note": "[Chaetoglobosin A]", "values": [{"measurement": "activity at 2 µg/mL", "setting": "[1]; [16]", "result": 17.4, "unit": "%"}, {"measurement": "activity at 2 µg/mL", "setting": "[1]; [17]", "result": 22.2, "unit": "%"}, {"measurement": "percent parasite growth at 2 µg/mL", "setting": "[2]; [6]", "result": 51.1, "unit": "%"}, {"measurement": "percent parasite growth at 2 µg/mL", "setting": "[2]; [7]", "result": 65.4, "unit": "%"}, {"measurement": "activity at 2 µg/mL", "setting": "[3]; [18]", "result": 10.6, "unit": "%"}, {"measurement": "activity at 2 µg/mL", "setting": "[3]; [19]", "result": 0.38, "unit": "%"}]}
{"smiles": "CN(C)[C@@H]1C(O)=C(C(N)=O)C(=O)[C@@]2(O)C(O)=C3C(=O)c4c(O)cccc4[C@@](C)(O)[C@H]3C[C@@H]12", "note": "[Tetracycline]", "values": [{"measurement": "activity at 2 µg/mL", "setting": "[1]; [4]", "result": 164, "unit": "%"}, {"measurement": "activity at 2 µg/mL", "setting": "[1]; [5]", "result": 73.9, "unit": "%"}, {"measurement": "percent parasite growth at 2 µg/mL", "setting": "[2]; read-out: Tg_72h_%Growth_Rep1", "result": 103, "unit": "%"}, {"measurement": "percent parasite growth at 2 µg/mL", "setting": "[2]; read-out: Tg_72h_%Growth_Rep2", "result": 101, "unit": "%"}, {"measurement": "activity at 2 µg/mL", "setting": "[3]; [8]", "result": 62.1, "unit": "%"}, {"measurement": "activity at 2 µg/mL", "setting": "[3]; [9]", "result": 83.3, "unit": "%"}]}
{"smiles": "CC(=O)O[C@@H]1[C@@H]2O[C@H]2[C@@](C)(O)C(=O)[C@@H](C)C/C=C\\[C@H]2[C@H](O)C(C)=C(C)[C@H]3[C@H](Cc4ccccc4)NC(=O)[C@@]123", "note": "[Epoxycytochalasin C, 19,20-]", "values": [{"measurement": "Pf_120h_%Growth_Rep1", "setting": "[1]; library screen at 2 μg/mL, 120 h, replicate 1", "result": 4.88, "unit": "%"}, {"measurement": "Pf_120h_%Growth_Rep2", "setting": "[1]; library screen at 2 μg/mL, 120 h, replicate 2", "result": 15.35, "unit": "%"}, {"measurement": "Tg_72h_%Growth_Rep1", "setting": "[2]; library screen at 2 μg/mL, replicate 1", "result": 1.38, "unit": "%"}, {"measurement": "Tg_72h_%Growth_Rep2", "setting": "[2]; library screen at 2 μg/mL, replicate 2", "result": 1.44, "unit": "%"}, {"measurement": "Pf_72h_%Growth_Rep1", "setting": "[3]; library screen at 2 μg/mL, 72 h, replicate 1", "result": 3.41, "unit": "%"}, {"measurement": "Pf_72h_%Growth_Rep2", "setting": "[3]; library screen at 2 μg/mL, 72 h, replicate 2", "result": 4.96, "unit": "%"}]}
